The target in one assay is SYK (Homo sapiens, UniProt P43405). The experiment in a line: SYK inhibition assay (standard coupled enzyme assay). The assay is classed as biochemical. As for the experimental part: Reactions were carried out in 100 mM HEPES (pH 7.5), 10 mM MgCl2, 25 mM NaCl, 1 mM DTT and 1.5% DMSO. Final substrate concentrations in the assay were 200 μM ATP (Sigma chemical Co.) and 4 μM poly Gly-Tyr peptide (Sigma Chemical Co.). Assays were carried out at 30° C. and 200 nM SYK. Final concentrations of the components of the coupled enzyme system were 2.5 mM phosphoenolpyruvate, 300 μM NADH, 30 μg/ml pyruvate kinase and 10 μg/ml lactate dehydrogenase.
An assay stock buffer solution was prepared containing all of the reagents listed above, with the exception of SYK, DTT, and the test compound of interest of the present invention. 56 μl of the test reaction was placed in a 96 well plate followed by the addition of 1 μl of 2 mM DMSO stock containing the test compound of the present invnetion (final compound concentration 30 μM).

The next assay deals with T1, ZAP-70 (Homo sapiens, UniProt P43403).
T1 sequence (P43403 1-619): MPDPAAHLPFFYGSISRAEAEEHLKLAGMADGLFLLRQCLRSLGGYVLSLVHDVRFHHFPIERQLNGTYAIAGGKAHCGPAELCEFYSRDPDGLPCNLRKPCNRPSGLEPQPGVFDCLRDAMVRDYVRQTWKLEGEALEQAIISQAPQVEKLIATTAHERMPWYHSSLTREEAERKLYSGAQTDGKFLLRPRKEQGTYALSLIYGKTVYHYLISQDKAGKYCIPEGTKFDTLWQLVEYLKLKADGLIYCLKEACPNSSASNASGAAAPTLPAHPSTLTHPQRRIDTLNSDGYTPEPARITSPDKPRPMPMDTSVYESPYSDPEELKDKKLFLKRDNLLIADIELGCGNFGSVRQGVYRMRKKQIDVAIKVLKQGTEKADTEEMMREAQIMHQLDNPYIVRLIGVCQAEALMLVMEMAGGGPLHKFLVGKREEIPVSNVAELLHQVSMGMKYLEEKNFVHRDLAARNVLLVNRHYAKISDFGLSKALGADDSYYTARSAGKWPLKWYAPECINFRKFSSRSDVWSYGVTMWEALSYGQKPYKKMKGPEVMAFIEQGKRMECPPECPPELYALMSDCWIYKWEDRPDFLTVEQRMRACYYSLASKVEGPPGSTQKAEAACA
The experiment in a line: ZAP-70 inhibition assay (standard coupled enzyme assay). Type of assay: biochemical. To be noted: 100 μM ATP, 20 μM poly-4EY peptide, 30° C., 60 nM ZAP-70. The procedure: Compounds were screened for their ability to inhibit ZAP-70 using a standard coupled enzyme assay (Fox et al., Protein Sci. 1998, 7, 2249). Assays were carried out in a mixture of 100 mM HEPES (pH 7.5), 10 mM MgCl2, 25 mM NaCl, 2 mM DTT and 3% DMSO. Final substrate concentrations in the assay were 100 μM ATP (Sigma Chemicals) and 20 μM peptide (poly-4EY, Sigma Chemicals). Assays were carried out at 30° C. and 60 nM ZAP-70. Final concentrations of the components of the coupled enzyme system were 2.5 mM phosphoenolpyruvate, 300 μM NADH, 30 μg/ml pyruvate kinase and 10 μg/ml lactate dehydrogenase.
An assay stock buffer solution was prepared containing all of the reagents listed above, with the exception of ZAP-70 and the test compound of interest of the present invention. 55 μl of the stock solution was placed in a 96 well plate followed by addition of 2 μl of DMSO stock containing serial dilutions of the test compound of the present invention (typically starting from a final concentration of 15 μM). The plate was preincubated for 10 minutes at 30° C. and the reaction initiated by addition of 10 μl of enzyme (final concentration 60 nM). Initial reaction rates were determined with a Molecular Devices SpectraMax Plus plate reader over a 15 minute time course. Ki data was calculated from non-linear regression analysis using the Prism software package (GraphPad Prism version 3.0a for Macintosh, GraphPad Software, San Diego Calif., USA).

Where [1] appears, read: coupled enzyme assay, 200 μM ATP, 4 μM poly Gly-Tyr peptide, 30° C., read-out: Ki (SYK).

The structures appear in SMILES notation. Like-named read-outs stand apart in the source and are kept apart here. Where only a bound is given, the exact number is not on record here.

One may read the Ki as a dissociation constant, usually derived from enzyme kinetics or from competition with a known ligand. With `COc1cc(Nc2nccc(-c3nc(CO)cs3)n2)cc(C(F)(F)F)c1` [Example I-84], the Ki on SYK and at ZAP-70 was at most 5 µM in each case.
Turning to `Cc1cc2cc(Nc3nccc(-c4ncc(C)s4)n3)ccc2[nH]1` [Example I-18], the Ki on SYK (setting [1]) and at ZAP-70 was at most 5 µM throughout.
Take `Cc1cc(C)cc(Nc2nccc(-c3ncc(Br)s3)n2)c1` [Example I-71]: the Ki at SYK (setting [1]) and on ZAP-70 was at most 5 µM throughout.
In the case of `CCn1c2ccccc2c2cc(Nc3nccc(-c4ncc(C)s4)n3)ccc21` [Example I-26], the inhibition constant (Ki) on SYK (setting [1]) and at ZAP-70 was at most 5 µM in each case.
As for `CCN(CC)CCCNCc1cnc(-c2ccnc(Nc3cc(C)cc(C)c3)n2)s1` [Example I-45], the Ki at SYK (setting [1]) and on ZAP-70 was at most 5 µM throughout.
With `Cc1cnc(-c2ccnc(Nc3ccc4[nH]nc(C)c4c3)n2)s1` [Example I-136], the Ki on SYK (setting [1]) and at ZAP-70 was at most 5 µM each time.
For the molecule `Cc1cc(C)cc(Nc2nccc(-c3ncc(N4CCCCC4)s3)n2)c1` [Example I-74], the Ki at SYK (setting [1]) and on ZAP-70 was at most 5 µM throughout.
As for `Cc1cnc(-c2ccnc(Nc3ccc(N(C)C)cc3)n2)s1` [Example I-92], the inhibition constant (Ki) at SYK (setting [1]) and on ZAP-70 was at most 5 µM throughout.
Regarding `Cc1cnc(-c2ccnc(Nc3ccc4c(c3)CCN4S(C)(=O)=O)n2)s1` [Example I-20], the Ki on SYK (setting [1]) and at ZAP-70 was at most 5 µM each time.
In the case of `Cc1cc(C)cc(Nc2nccc(-c3nc(CN)cs3)n2)c1` [Example I-76], the Ki at SYK (setting [1]) and at ZAP-70 was at most 5 µM in each case.
As for `Cc1cc(C)cc(Nc2nccc(-c3nc(CBr)cs3)n2)c1` [Example I-64], the inhibition constant Ki on SYK (setting [1]) and at ZAP-70 was at most 5 µM in each case.
Regarding `Cc1cnc(-c2ccnc(Nc3ccc(Cl)c(C)c3)n2)s1` [Example I-29], the inhibition constant Ki on SYK (setting [1]) and at ZAP-70 was at most 5 µM throughout.
Regarding `Cc1cc(C)cc(Nc2nccc(-c3ncc(CNc4ccccc4)s3)n2)c1` [Example I-141], the Ki on SYK (setting [1]) and on ZAP-70 was at most 5 µM throughout.
On to `COCc1cc(N)cc(Nc2nccc(-c3ncc(C)s3)n2)c1` [Example I-156], for which the Ki at SYK (setting [1]) and on ZAP-70 was at most 5 µM each time.
On to `Cc1cc(C)cc(Nc2nccc(-c3ncc(C(=O)NCCN)s3)n2)c1` [Example I-138], for which the Ki on SYK (setting [1]) and at ZAP-70 was at most 5 µM in each case.
Turning to `Cc1cc(Nc2nccc(-c3ncc(C)s3)n2)cc(NS(C)(=O)=O)c1` [Example I-155], the Ki on SYK (setting [1]) and at ZAP-70 was at most 5 µM throughout.
For the molecule `CCCc1ccccc1Nc1nccc(-c2ncc(C)s2)n1` [Example I-103], the Ki on SYK (setting [1]) and on ZAP-70 was at most 5 µM throughout.
Turning to `CC(=O)OCc1cnc(-c2ccnc(Nc3ccccc3OCc3ccccc3)n2)s1` [Example I-149], the Ki at SYK (setting [1]) and at ZAP-70 was at most 5 µM in each case.
Take `Cc1cnc(-c2ccnc(Nc3ccc4c(c3)CCC4)n2)s1` [Example I-50]: the Ki on SYK (setting [1]) and on ZAP-70 was at most 5 µM each time.
Regarding `COCc1csc(-c2ccnc(Nc3cc(C)cc(C)c3)n2)n1` [Example I-66], the Ki on SYK (setting [1]) and on ZAP-70 was at most 5 µM each time.
As to `Cc1cc(C)cc(Nc2nccc(-c3ncc(CN(C)CCO)s3)n2)c1` [Example I-87], the inhibitory constant (Ki) on SYK (setting [1]) and on ZAP-70 was at most 5 µM each time.
Take `Cc1cc(C)cc(Nc2nccc(-c3ncc(CN4CCCCC4)s3)n2)c1` [Example I-46]: the inhibition constant Ki at SYK (setting [1]) and on ZAP-70 was at most 5 µM each time.
